# Source: patent publication US11213555B2, “Intravenous injection for enhancing immune function” (priority 2016, dated 2022)
# Read-outs that look alike come from different tables or passages of the source. Ends that are not written are not given here.
# Tests used:
# [1] = tested on: monocytes-macrophages; test: Carbon clearance assay, phagocytosis of monocytes-macrophages in normal mice; conditions: normal Kunming mice; 0.2 mg/kg via tail vein, once a day for five days; 2 h after last dose
# [2] = tested on: Ehrlich ascites carcinoma; test: Body weight gain and spleen index of Ehrlich ascites carcinoma mice; conditions: EAC ICR mice; 0.2 mg/kg via tail vein, one day before inoculation then 7 consecutive days
# [3] = Spleen index (immune organ index) in immunosuppressed mouse models; conditions: immunosuppressed mice (dexamethasone 40 mg/kg i.p., five days); 0.2 mg/kg via tail vein, once a day for five days
# [4] = tested on: monocytes-macrophages; conditions: immunosuppressed mice (dexamethasone 40 mg/kg i.p., five days); 0.2 mg/kg via tail vein, once a day for five days
# [5] = Spleen index (immune organ index) in normal mice; conditions: 0.2 mg/kg via tail vein, once a day for five days, 2 h after last dose
substance,measurement,setting,value
"RKDVY [Thymopentin, thymopentin]",Carbon clearance index K × 10^3,[1],4.874 ± 0.582 ^
same,Body weight gain,[2],6.190 ± 2.087 g
same,Spleen index (%),[2],0.221 ± 0.036%
same,Spleen index (%),[3],0.546 ± 0.097^ΔΔ %
same,Carbon clearance index K × 10^3,[4],7.773 ± 1.018^ΔΔ
same,Spleen index (%),[5],0.642 ± 0.091%
